Consider 3 compounds from patent US20100017900A1, “Prostate Epithelial Androgen Receptor Suppresses Prostate Growth and Tumor Invasion” (University of Rochester, priority 2006, published 2010).

“Also recorded” adds a separate entry of the source.

Test [1] relates to PC3-AR9 cells. In words: Boyden chamber Matrigel invasion assay of PC3-AR9 cells. It counts as cell-based, human. The settings on record: Matrigel coated Boyden chambers. Here is the method:
The invasion assays used Boyden chambers (Becton Dickinson) with […] inserts and 8 μm pores. Matrigel Matrix ([…] surface area) was placed in medium (1:5 dilution) on the inner layer of the invasion chamber and incubated at 37° C. for 30 min before adding the cells.

The subject of test [2] is MMP-9. The test can be described thus: MMP-9 enzyme (gelatinase) / zymography assay in PC3-AR9 cells. The settings on record: for gelatinase activity of MMP-9: PC3-AR9 cells. Type of test: cell-based, human.

With `C[C@]12CCC(=O)C[C@@H]1CC[C@@H]1[C@@H]2CC[C@]2(C)[C@@H](O)CC[C@@H]12` [DHT, dihydrotestosterone], the “invasion of PC3-AR9” value in test [1] (in the presence of DHT, compared to PC3-v) is recorded as “decreased”. The “gelatinase activity of MMP-9” value in test [2] (1 nM DHT) is “suppress”.

In the case of `CC(C)(O)C(=O)Nc1ccc([N+](=O)[O-])c(C(F)(F)F)c1` [HF], the “invasion of PC3-AR9” value in test [1] (addition of HF to DHT) is “increased”. Besides, the “gelatinase activity of MMP-9” value in test [2] (1 μM HF added to 1 nM DHT) is recorded as “restore”.

As for `CCCCCCCCCCCCCC(=O)O[C@@H]1[C@@H](C)[C@@]2(O)[C@@H](C=C(CO)C[C@]3(O)C(=O)C(C)=C[C@@H]23)[C@@H]2C(C)(C)[C@]12OC(C)=O` [TPA], the “activity of MMP-9 (zymography)” value in test [2] (10 nM TPA) is on record as “increased; also recorded: enhanced”.
